Reference: BigSolDB 2.1

CN(C)[C@@H]1C(=O)C(C(N)=O)=C(O)[C@@]2(O)C(=O)C3=C(O)c4c(O)cccc4C[C@H]3C[C@@H]12
solubility (mole fraction)
Conditions	278.15 K	283.15 K	288.15 K	293.15 K	298.15 K	303.15 K	308.15 K	313.15 K	318.15 K
in 1,4-dioxane	–	–	0.00134	0.00159	0.00188	0.0022	0.00255	0.00294	0.00336
in acetonitrile	0.000118	0.00013	0.000143	0.000156	0.000171	0.000188	0.000206	0.000226	0.000248
in cyclohexane	7.64e-06	1.05e-05	1.42e-05	1.93e-05	2.47e-05	3.03e-05	3.85e-05	4.74e-05	5.7e-05
in ethanol	0.000131	0.000144	0.000158	0.000172	0.000188	0.000207	0.000225	0.000244	0.000264
in ethyl acetate	0.00032	0.000392	0.000464	0.000551	0.000649	0.000761	0.000882	0.00103	0.00119
in isobutanol	3.76e-05	4.32e-05	4.9e-05	5.53e-05	6.3e-05	7.17e-05	8.14e-05	9.21e-05	0.000103
in isopropanol	4.02e-05	4.65e-05	5.37e-05	6.18e-05	7.05e-05	8.05e-05	9.19e-05	0.000105	0.000118
in methanol	0.000166	0.000183	0.0002	0.000218	0.000237	0.000258	0.000282	0.000306	0.000332
in n-butanol	4.76e-05	5.56e-05	6.47e-05	7.34e-05	8.37e-05	9.51e-05	0.000107	0.000121	0.000135
in n-hexane	3.64e-05	4.07e-05	4.51e-05	5.06e-05	5.66e-05	6.34e-05	7.17e-05	8.08e-05	8.98e-05
in n-octanol	3.16e-05	3.56e-05	3.99e-05	4.48e-05	5.08e-05	5.71e-05	6.47e-05	7.21e-05	8.04e-05
in n-propanol	0.000101	0.000106	0.000112	0.00012	0.000128	0.000136	0.000145	0.000155	0.000166
